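Interpolation was linear, between the two tested concentrations surrounding the appropriate level; five concentrations were tested over 48 hours in 96-well plates. At the TGI there is no net growth.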
Legend:
Test in all cases: NCI-60 cell line screen, 48 h
[1] = system: 786-0 renal
[2] = system: ACHN renal
[3] = system: BT-549 breast
[4] = system: CAKI-1 renal
[5] = system: CCRF-CEM leukemia
[6] = system: COLO 205 colon
[7] = system: DU-145 prostate
[8] = system: HCC-2998 colon
[9] = system: HCT-116 colon
[10] = system: HCT-15 colon
[11] = system: HOP-92 NSCLC
[12] = system: KM12 colon
[13] = system: LOX IMVI melanoma
[14] = system: MDA-MB-231 breast
[15] = system: MDA-MB-435
[16] = system: MDA-N
[17] = system: NCI-H226 lung
[18] = system: NCI-H23 lung
[19] = system: NCI-H460 lung
[20] = system: NCI/ADR-RES ovarian
[21] = system: OVCAR-4 ovarian
[22] = system: OVCAR-8 ovarian
[23] = system: RPMI-8226 leukemia
[24] = system: SF-268 CNS
[25] = system: SK-MEL-28 melanoma
[26] = system: SN12C renal
[27] = system: SNB-19 CNS
[28] = system: SNB-75 CNS
[29] = system: SR leukemia
[30] = system: T-47D breast
[31] = system: TK-10 renal
[32] = system: U251 CNS
[33] = system: UACC-257 melanoma
[34] = system: UACC-62 melanoma
[35] = system: UO-31 renal
[36] = system: A498 renal
[37] = system: A549 NSCLC
[38] = system: EKVX NSCLC
[39] = system: HL-60(TB) leukemia
[40] = system: HOP-62 NSCLC
[41] = system: HT29 colon
[42] = system: IGROV1 ovarian
[43] = system: K-562 leukemia
[44] = system: M14 melanoma
[45] = system: MCF7 breast
[46] = system: MOLT-4 leukemia
[47] = system: OVCAR-3 ovarian
[48] = system: OVCAR-5 ovarian
[49] = system: PC-3 prostate
[50] = system: SF-295 CNS
[51] = system: SF-539 CNS
[52] = system: SK-MEL-2 melanoma
[53] = system: SK-MEL-5 melanoma
[54] = system: SK-OV-3 ovarian
[55] = system: SW-620 colon

Structure (SMILES): CC1(C)C(=O)C2(N)CCC1C2 (stereo not drawn)
- TGI [1]: > 100 µM
- TGI [2]: > 100 µM
- TGI [3]: > 100 µM
- TGI [4]: > 100 µM
- TGI [5]: > 100 µM
- TGI [6]: > 100 µM
- TGI [7]: > 100 µM
- TGI [8]: > 100 µM
- TGI [9]: > 100 µM
- TGI [10]: > 100 µM
- TGI [11]: > 100 µM
- TGI [12]: > 100 µM
- TGI [13]: > 100 µM
- TGI [14]: > 100 µM
- TGI [15]: > 100 µM
- TGI [16]: > 100 µM
- TGI [17]: > 100 µM
- TGI [18]: > 100 µM
- TGI [19]: > 100 µM
- TGI [20]: > 100 µM
- TGI [21]: > 100 µM
- TGI [22]: > 100 µM
- TGI [23]: > 100 µM
- TGI [24]: > 100 µM
- TGI [25]: > 100 µM
- TGI [26]: > 100 µM
- TGI [27]: > 100 µM
- TGI [28]: > 100 µM
- TGI [29]: > 100 µM
- TGI [30]: > 100 µM
- TGI [31]: > 100 µM
- TGI [32]: > 100 µM
- TGI [33]: > 100 µM
- TGI [34]: > 100 µM
- TGI [35]: > 100 µM

Structure (SMILES): COC(=O)Cc1c(-c2c(CC(=O)OC)c3ccccc3n2C2OC(COC3OC(COC(C)=O)C(OC(C)=O)C(OC(C)=O)C3OC(C)=O)C(O)C(O)C2O)[nH]c2ccccc12 (stereo not drawn)
- TGI [1]: > 100 µM
- TGI [36]: > 100 µM
- TGI [37]: > 100 µM
- TGI [2]: > 100 µM
- TGI [3]: > 100 µM
- TGI [4]: > 100 µM
- TGI [5]: > 100 µM
- TGI [6]: > 100 µM
- TGI [7]: > 100 µM
- TGI [38]: > 100 µM
- TGI [9]: > 100 µM
- TGI [10]: > 100 µM
- TGI [39]: > 100 µM
- TGI [40]: 70.9 µM
- TGI [11]: > 100 µM
- TGI [41]: > 100 µM
- TGI [42]: > 100 µM
- TGI [43]: > 100 µM
- TGI [13]: > 100 µM
- TGI [44]: > 100 µM
- TGI [45]: > 100 µM
- TGI [14]: > 100 µM
- TGI [15]: > 100 µM
- TGI [16]: > 100 µM
- TGI [46]: > 100 µM
- TGI [17]: > 100 µM
- TGI [18]: > 100 µM
- TGI [19]: > 100 µM
- TGI [47]: > 100 µM
- TGI [48]: > 100 µM
- TGI [49]: > 100 µM
- TGI [23]: > 100 µM
- TGI [50]: > 100 µM
- TGI [51]: > 100 µM
- TGI [52]: 64.7 µM
- TGI [25]: > 100 µM
- TGI [53]: > 100 µM
- TGI [54]: > 100 µM
- TGI [26]: > 100 µM
- TGI [27]: 60 µM
- TGI [29]: > 100 µM
- TGI [55]: > 100 µM
- TGI [30]: > 100 µM
- TGI [31]: > 100 µM
- TGI [32]: > 100 µM
- TGI [33]: > 100 µM
- TGI [34]: > 100 µM
- TGI [35]: > 100 µM
